Source: US20240245647A1, “ISOMEROHYDROLASE INHIBITOR FOR TREATMENT OF ATROPHIC FORM OF AGE-RELATED MACULAR DEGENERATION AND STARGARDT DISEASE” (The Trustees of Columbia University in the City of New York, priority 2021, published 2024)
pIC50, pKi: −log10 of the molar value. Like-named read-outs stand apart in the source and are kept apart here.

Columns and labels:
RPE65 [1] = target: T1, RPE65 (Gallus gallus, UniProt Q9YGX2); experiment: Liposome-based isomerase assay with purified RPE65; assay type: biochemical, chicken
T1 sequence (Q9YGX2 1-533): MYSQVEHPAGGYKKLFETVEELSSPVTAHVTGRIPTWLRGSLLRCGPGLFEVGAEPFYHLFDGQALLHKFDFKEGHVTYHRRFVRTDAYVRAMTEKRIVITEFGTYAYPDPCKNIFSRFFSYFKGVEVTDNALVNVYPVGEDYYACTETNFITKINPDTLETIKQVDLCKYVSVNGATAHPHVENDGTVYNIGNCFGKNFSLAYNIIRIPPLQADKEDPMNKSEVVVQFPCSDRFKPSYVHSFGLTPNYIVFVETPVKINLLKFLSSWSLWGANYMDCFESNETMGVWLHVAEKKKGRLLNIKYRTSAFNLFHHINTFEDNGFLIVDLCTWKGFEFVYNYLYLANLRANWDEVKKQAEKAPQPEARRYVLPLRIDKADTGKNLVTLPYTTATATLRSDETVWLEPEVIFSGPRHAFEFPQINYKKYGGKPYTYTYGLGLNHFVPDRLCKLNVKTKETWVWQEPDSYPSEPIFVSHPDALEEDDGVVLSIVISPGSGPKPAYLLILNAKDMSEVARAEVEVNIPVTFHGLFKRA
Experimental: FIG. 3. Uncompetitive inhibition of RPE65 isomerase by RPE65-61. All-trans-retinyl ester incorporated in liposomes was used as a substrate for purified RPE65 in the isomerase assay. (FIG. 3A) HPLC elution profile of the reaction products without inhibitor; (FIG. 3B) with 180 nM of RPE65-61; Peak 1, retinyl esters; Peak 2, 11-cis-retinol; Peak 3, all-trans-retinol. (FIG. 3C) Lineweaver-Burk plot of 11-cis-retinol generated by RPE65. Liposomes with increasing concentrations (S) of all-trans-retinyl palmitate were incubated with 25 μg of purified chicken RPE65 in the absence (♦) or in the presence of RPE65-61 (180 nM) (▪).
All-trans [11,12-^3H]-retinol (1 mCi/ml, 45.5 Ci/mmol, Perkin Elmer, Boston, MA) in N,N-dimethyl formamide (DMF) was used as the substrate for the isomerohydrolase assay. Bovine RPE microsomes were prepared as described previously. […] The upper layer was collected and the generated retinoids were analyzed by normal phase HPLC as described (Moiseyev, G. et al. 2003). […] The isomerohydrolase activity was calculated from the area of the 11-cis retinol peak using Radiomatic 610TR software (Perkin Elmer, Boston, MA) with synthetic 11-cis [^3H]-retinol as a standard. […] The retinoid profile after completion of the reaction was analyzed by HPLC where the peaks were identified by co-elution with retinoid standards. […]

[2] = system: cGAS/STING signal pathway; experiment: cGAS/STING pathway activation after LIRD (Western blot); assay type: in vivo, BALB/c mice; conditions: 2 mg/kg
Experimental: FIG. 8. Elevated protein levels of cGAS-STING pathway in BALB/c mice. The CGAS, STING and phosphorylated NF-κB (pp65). (FIGS. 8A-8C) Retinas were harvested and cGAS and STING protein levels were measured by Western blot analysis with β-actin as loading control and densitometry quantification. (FIGS. 8D-8E) Levels of phosphorylated NF-κB (p-NF-κB) were determined by Western blotting. Total NF-κB (p65) was used as an internal control and densitometry quantification. Each lane represents an individual mouse. (FIGS. 8F-8G) Photoreceptor cell apoptosis was evaluated by TUNEL on the retinal sections at the dose of 2 mg/kg in BALB/c mice and correlating quantitative analysis. Student's t-test was used (n=5, mean±SEM, *P<0.05, **<0.01).
To further evaluate the effect of RPE65-61 on retinal apoptosis, retinal sections from LIRD mice were used for Terminal deoxynucleotidyltransferase dUTP nick-end labeling (TUNEL) with the In Situ Cell Death Detection Kit (Millipore/sigma Cat #:11684795910). TUNEL-positive photoreceptor cells were quantified to evaluate the effects of RPE65-61 as described (Rajala, A. et al. 2018; Ma, H. et al. 2020).

VAP-1 = experiment: in vitro; conditions: male, Beagle, dog, plasma, pH 7.4
Experimental: Studies were carried out in mixed-gender human plasma (Lot #HMN330460) and male Beagle dog plasma (Lot #BGL118112), obtained from BioIVT and collected on sodium heparin. Plasma was adjusted to pH 7.4 prior to initiating the experiments. DMSO stocks were first prepared for the test articles. Aliquots of the DMSO solutions were dosed into 1 mL of plasma, which had been pre-warmed to 37° C., at a final test article concentration of 1 μM. The vials were kept in a benchtop Thermomixer® for the duration of the experiment. Aliquots (100 μL) were taken at each time point (0, 15, 30, 60, and 120 minutes) and added to 96-well plates, which had been pre-filled with 300 μL of acetonitrile (ACN). Samples were stored at 4° C. until the end of the experiment. After the final time point was sampled, the plate was mixed and then centrifuged at 3,000 rpm for 10 minutes. Aliquots of the supernatant were removed, diluted 1:1 into distilled water, and analyzed by LC-MS/MS. The peak area response ratio to internal standard (PARR) was compared to the PARR at time 0 to determine the percent of test article remaining at each time point. Half-lives were calculated using GraphPad software, fitting to a single-phase exponential decay equation.

RPE65 [3] = target: T2, RPE65 (Bos taurus, UniProt Q28175); experiment: In vitro retinol isomerase (isomerohydrolase, IMH) assay with bovine RPE microsomes; assay type: biochemical
T2 construct: Bovine RPE microsomes were prepared as described previously; from tissue; host or cells: bovine retinal pigment epithelium (RPE) microsomes
T2 sequence (Q28175 whole entry): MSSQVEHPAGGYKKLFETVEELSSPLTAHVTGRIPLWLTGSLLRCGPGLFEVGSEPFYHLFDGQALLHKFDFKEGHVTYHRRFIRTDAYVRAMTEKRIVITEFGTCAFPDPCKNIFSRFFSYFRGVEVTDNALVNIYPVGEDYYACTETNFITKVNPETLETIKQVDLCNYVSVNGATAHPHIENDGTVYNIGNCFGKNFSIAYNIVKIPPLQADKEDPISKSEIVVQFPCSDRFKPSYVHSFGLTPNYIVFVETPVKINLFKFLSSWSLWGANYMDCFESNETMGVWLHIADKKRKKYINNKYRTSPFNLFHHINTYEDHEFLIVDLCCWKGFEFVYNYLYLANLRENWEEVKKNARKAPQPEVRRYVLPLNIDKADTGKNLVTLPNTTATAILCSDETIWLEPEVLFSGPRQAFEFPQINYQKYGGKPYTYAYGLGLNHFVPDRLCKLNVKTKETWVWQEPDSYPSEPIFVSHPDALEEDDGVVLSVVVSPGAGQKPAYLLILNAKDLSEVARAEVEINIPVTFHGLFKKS
Experimental: FIG. 2. Inhibition of the RPE65 isomerase activity by RPE65-61. Bovine RPE microsomes (20 μg) were incubated with 0.2 μM of all-trans-[3H]-retinol in the presence or absence of RPE65-61 for 1 h at 37° C. The generated retinoids were analyzed by HPLC coupled with flow scintillation analyzer. (FIG. 2A) HPLC elution profile without inhibitor; (FIG. 2B) with 375 nM of RPE65-61. Peak 1, retinyl esters; Peak 2, 11-cis-retinol; Peak 3 all-trans-retinol.
All-trans [11,12-^3H]-retinol (1 mCi/ml, 45.5 Ci/mmol, Perkin Elmer, Boston, MA) in N,N-dimethyl formamide (DMF) was used as the substrate for the isomerohydrolase assay. Bovine RPE microsomes were prepared as described previously. For each reaction, 25 μg microsomal proteins from the bovine RPE were added into 200 μl of reaction buffer (10 mM BTP, pH 8.0, 100 mM NaCl) containing 0.2 μM of all-trans retinol, 1% BSA and 25 μM of cellular retinaldehyde-binding protein (CRALBP). For the inhibition of isomerase activity, RPE65-61 dissolved in the DMF was added to the reaction prior to addition of all-trans retinol. The reaction was stopped and retinoids extracted with 300 μl of cold methanol and 300 μl of hexane and centrifuged at 10,000×g for 5 min. The upper layer was collected and the generated retinoids were analyzed by normal phase HPLC as described (Moiseyev, G. et al. 2003). […] The isomerohydrolase activity was calculated from the area of the 11-cis retinol peak using Radiomatic 610TR software (Perkin Elmer, Boston, MA) with synthetic 11-cis [^3H]-retinol as a standard. […] The retinoid profile after completion of the reaction was analyzed by HPLC where the peaks were identified by co-elution with retinoid standards. The RPE65 isomehydrolase activity was calculated based on the 11-cis retinol peak area as described (Moiseyev, G. et al. 2005; Nikolaeva, O. et al. 2009). […] The inhibition constant for RPE65-61 was calculated from the following equation: Ki=[I]/([…]) where [I] is concentration of inhibitor, Vm is maximal velocity in the absence of the inhibitor, and Vmi is maximal velocity in the presence of the inhibitor.

## N=S(=O)(CCN)c1cccc(OCC2CCCCC2)c1 (racemic) [RPE65-61, (±)-(2-aminoethyl) (3-(cyclohexylmethoxy)phenyl) (imino)-λ^6-sulfanone]
RPE65 [1]; liposome-based assay with recombinant RPE65
  mode of RPE65 inhibition: uncompetitive inhibitor
RPE65 [1]; liposome-based assay, 180 nM inhibitor
  pKi: 6.82
[2]
  activation of cGAS/STING signal pathway in RPE and photoreceptor cells: protected RPE and photoreceptor cells from the activation of cGAS/STING signal pathway
VAP-1
  half-life at 1 μM: 35.3 min
RPE65 [3]
  RPE65 inhibition, in words: effectively inhibit
RPE65 [3]; bovine RPE microsomes, 0.2 μM all-trans-[3H]-retinol, read-out: apparent IC50, RPE65 isomerase activity
  pIC50: 7.10
RPE65 [3]; read-out: IC50 in the primary IMH / RPE65 inhibition assay
  pIC50: 7.02
